{
  "source": "patent US5783587A",
  "about": "“Benzoyl Piperidines/pyrrolidines for enhancing synaptic response” (The Regents of the University of California, priority 1997, dated 1998)",
  "data": [
    {"tested_on": "AMPA receptors", "assay": "In vitro physiological testing: field EPSPs in slices of rat hippocampus (CA1)", "type": "cell-based, rat (Sprague-Dawley)", "conditions": "rat hippocampal slices, 15-minute perfusion, paired-pulse, second response", "experimental": "The physiological effects of the compounds of this invention were determined by in vitro tests using slices of rat hippocampus according to the following procedure. Excitatory responses (field EPSPs) were measured in hippocampal slices, which are maintained in a recording chamber continuously perfused with artificial cerebrospinal fluid (ACSF). During a 15-minute interval, the perfusion medium was switched to one containing various concentrations of the test compounds. Responses collected immediately before and at the end of drug perfusion were superimposed in order to calculate both the percent increase in EPSP amplitude and the percent increase in the width of the response at one-half the peak height (half-width).\nTo conduct these tests, the hippocampus was removed from anesthetized, 2-month old Sprague-Dawley rats, and in vitro slices (400 micrometers thick) were prepared and maintained in an interface chamber at 35° C. using conventional techniques. This is the procedure used by Dunwiddie and Lynch, as reported in J. Physiol. 276:353-367 (1978). The chamber was constantly perfused at 0.5 mL/min with ACSF containing (in mM): NaCl, 124; KCl, 3; KH2 PO4, 1.25; MgSO4, 2.5; CaCl2, 3.4; NaHCO3, 26; glucose, 10; and L-ascorbate, 2. A bipolar nichrome stimulating electrode was positioned in the dendritic layer (stratum radiatum) of the hippocampal subfield CA1 close to the border of subfield CA3.\nCurrent pulses (0.1 msec) through the stimulating electrode activated a population of the Schaffer-commissural (SC) fibers, which arise from neurons in the subdivision CA3 and terminate in synapses on the dendrites of CA1 neurons. Activation of these synapses causes them to release the transmitter glutamate. Glutamate binds to the post-synaptic AMPA receptors, which then transiently open an associated ion channel and permit a sodium current to enter the postsynaptic cell. This current results in a voltage in the extracellular space (the field excitatory post-synaptic potential or field \"EPSP\"), which is recorded by a high impedance recording electrode positioned in the middle of the stratum radiatum of CA1.\nWith the intensity of the stimulation current adjusted to produce half-maximal EPSPs (typically about 1.5-2.0 mV), paired stimulation pulses were given every 40 seconds with an interpulse interval of 200 msec. The field EPSPs of the second response were digitized and analyzed to determine amplitude and half-width. If the responses are stable for 15-30 minutes (baseline), test compounds were added to the perfusion lines for a period of about 15 minutes. The perfusion was then changed back to regular ACSF.\nPaired-pulse stimulation is used in this type of test because stimulation of the SC fibers in part activates interneurons that generate an inhibitory postsynaptic potential (IPSP) in the pyramidal cells of CA1. This feed-forward IPSP typically sets in after the EPSP reaches its peak. The feed-forward IPSP accelerates the repolarization and shortens the decay phase of the EPSP, and could thereby partially mask the effects of the test compounds. One of the relevant features of the feed-forward IPSP is that it cannot be reactivated for several hundred milliseconds following a stimulation pulse. This phenomenon can be employed to advantage to eliminate IPSP by delivering paired pulses separated by 200 milliseconds and using the second (\"primed\") response for data analysis.\nThe field EPSP recorded in field CA1 after stimulation of CA3 axons is known to be mediated by AMPA receptors: the receptors are present in the synapses, as reported by Kessler, et al., Brain Res. 560:337-341 (1991), and drugs that selectively block the receptor selectively block the field EPSP. […] See, for example, Staubli, et al., Psychobiology 18:377-381 (1990); Xiao, et al., Hippocampus 1:373-380 (1991); and Staubli, et al., Hippocampus 2:49-58 (1992). […]", "units": {"estimated concentration required to increase the amplitude of the EPSP to 25% above baseline (+25% Amplitude)": "mM", "estimated concentration required to increase the half-width of the EPSP by 50% (+50% Half-Width)": "mM"}, "values": [
      {"smiles": "COCc1ccc2c(c1)OC1CCCN1C2=O", "note": "(racemic) [Compound VI, (R, S)-6-Methoxymethyl-2,3-dihydro-1H-pyrrolo[2,1-b][1,3]benzoxazine-9(3aH)-one]", "estimated concentration required to increase the amplitude of the EPSP to 25% above baseline (+25% Amplitude)": 0.1, "estimated concentration required to increase the half-width of the EPSP by 50% (+50% Half-Width)": 0.2},
      {"smiles": "COCc1ccc2c(c1)C(=O)N1CCCC1O2", "note": "(racemic) [Compound VII, (R,S)-7-Methoxymethyl-2,3-dihydro-1H-pyrrolo[2,1-b][1,3]benzoxazine-9(3aH)-one]", "estimated concentration required to increase the amplitude of the EPSP to 25% above baseline (+25% Amplitude)": 0.3, "estimated concentration required to increase the half-width of the EPSP by 50% (+50% Half-Width)": 0.2},
      {"smiles": "COCc1ccc(C(=O)N2CCCCC2)cc1", "note": "[Compound I, 1-(4'-Methoxymethylbenzoyl)piperidine]", "estimated concentration required to increase the amplitude of the EPSP to 25% above baseline (+25% Amplitude)": 0.3, "estimated concentration required to increase the half-width of the EPSP by 50% (+50% Half-Width)": 0.3},
      {"smiles": "COCc1cccc(C(=O)N2CCCCC2)c1", "note": "[Compound II, 1-(3'-Methoxymethylbenzoyl)piperidine]", "estimated concentration required to increase the amplitude of the EPSP to 25% above baseline (+25% Amplitude)": 0.3, "estimated concentration required to increase the half-width of the EPSP by 50% (+50% Half-Width)": "> 1"},
      {"smiles": "CCOCc1ccc(C(=O)N2CCCCC2)cc1", "note": "[Compound III, 1-(4'-Ethoxymethylbenzoyl)piperidine]", "estimated concentration required to increase the amplitude of the EPSP to 25% above baseline (+25% Amplitude)": "> 1", "estimated concentration required to increase the half-width of the EPSP by 50% (+50% Half-Width)": 0.2},
      {"smiles": "O=C(c1ccc(CO)cc1)N1CCCCC1", "note": "[Compound IV, 1-(4'-Hydroxymethylbenzoyl)piperidine]", "estimated concentration required to increase the amplitude of the EPSP to 25% above baseline (+25% Amplitude)": 1, "estimated concentration required to increase the half-width of the EPSP by 50% (+50% Half-Width)": "> 1"},
      {"smiles": "O=C(c1ccc(COc2ccc3c(c2)OCO3)cc1)N1CCCCC1", "note": "[Compound V, 1-(4'-(3\",4\"-Methylenedioxyphenoxy)-methylbenzoyl)piperidine]", "estimated concentration required to increase the amplitude of the EPSP to 25% above baseline (+25% Amplitude)": 0.05, "estimated concentration required to increase the half-width of the EPSP by 50% (+50% Half-Width)": "> 0.1"}
    ]},
    {"tested_on": "not given", "assay": "not given", "conditions": "following peripheral administration in humans; cited from earlier work", "values": [
      {"smiles": "COc1ccc(C(=O)N2CCCC2=O)cc1", "note": "[aniracetam, N-anisoyl-2-pyrrolidinone]", "fraction of drug converted to anisoyl-GABA": "about 80%"}
    ]}
  ]
}
